Data: patent publication US10889564B2, “Tetrahydroindazoles and medical uses thereof” (Genase Therapeutics B.V., priority 2015, dated 2021)

How the values were obtained:
[1] = molecular target: T1, human dihydroorotate dehydrogenase (DHODH) (Homo sapiens (Human), UniProt Q02127); test: DHODH enzyme assay, Assay B (DCIP absorbance, 384 well); format: biochemical; conditions: 4 nM recombinant human DHODH
Method: (§1) Inhibition of human dihydroorotate dehydrogenase (DHODH) by example compounds as described herein was determined using one of two assays as described below.
Example compounds as described herein were dispensed with an acoustic liquid handler, Echo 550 (Labcyte) to a maximum volume of 50 nl per well in a 384 well plate. DHODH enzyme assays were performed with 4 nM recombinant human DHODH (purified essentially as described by Walse et. al., Biochemistry, 47, 8929-8936 (2008)). The reaction mixture consisted of 2 mM DL-dihydroorotic acid (#D7003, Sigma-Aldrich), 100 μM 3,4-dimethoxy-5-methyl-p-benzoquinone (#D9150, Sigma-Aldrich), and 200 μM 2,6-dichlorophenolindophenol sodium salt (DCIP) (#D1878, Sigma-Aldrich) in enzyme buffer (50 mM Tris-HCl pH 8.0, 0.1% Triton X-100, 150 mM KCl) in a final volume of 50 μl per well. A stock solution of 80 mM DCIP was prepared in DMSO just before use. Loss in absorbance by chromogen DCIP was measured at 595 nm at RT every 2 min for an hour with a plate reader (Envision, Perkin Elmer).

ARN8 melanoma cells = test: Sulforhodamine B assay of cancer cell growth and/or viability; format: cell-based; conditions: 72 hours; for viability at 2 µM: ARN8
Method: ARN8 melanoma cells are seeded at a density of 500 cells per well of a 96 well plate. Following 24 hours of incubation, cells are treated with increasing concentrations of the compound of Example 8 in the absence or presence of excess uridine (100 micromolar). Cells are incubated for 72 hours after which the growth medium is removed from the cells and replaced by […] of 1× sterile PBS and 50 μL of 40% trichloroacetic acid in dH2O. Samples are incubated at 4° C. for 1 h to fix the cells. The plate is then washed with 3 changes of water with all liquid allowed to drain from the plate. […] of 0.1% sulforhodamine B in 1% acetic acid in H2O is added to each well and incubated for 30 minutes. Excess dye is washed out with three changes of 1% acetic acid in H2O with all liquid allowed to drain from the plate. The remaining dye is solubilized in 100 microliters of 10 mM un-buffered basic Tris per well and absorbance read at 570 nm.

[2] = molecular target: T1, human dihydroorotate dehydrogenase (DHODH); test: DHODH enzyme assay, Assay A (DCIP absorbance); format: biochemical; conditions: 6 nM recombinant human DHODH
Method: as §1
DHODH enzyme assays were performed with 6 nM recombinant human DHODH (purified essentially as described by Walse et. al., Biochemistry, 47, 8929-8936 (2008)). The reaction mixture consisted of 1 mM DL-dihydroorotic acid (#D7003, Sigma-Aldrich), 100 μM 3,4-dimethoxy-5-methyl-p-benzoquinone (#D9150, Sigma-Aldrich), and 100 μM 2,6-dichlorophenolindophenol sodium salt (DCIP) (#D1878, Sigma-Aldrich) in enzyme buffer (50 mM Tris-HCl pH 8.0, 0.1% Triton X-100, 150 mM KCl). A stock solution of 20 mM DCIP was prepared in enzyme buffer and filtered through Whatman paper just before use. Loss in absorbance by chromogen DCIP was measured at 595 nm at RT every 3 min for an hour.

T1 sequence (Q02127 29-395): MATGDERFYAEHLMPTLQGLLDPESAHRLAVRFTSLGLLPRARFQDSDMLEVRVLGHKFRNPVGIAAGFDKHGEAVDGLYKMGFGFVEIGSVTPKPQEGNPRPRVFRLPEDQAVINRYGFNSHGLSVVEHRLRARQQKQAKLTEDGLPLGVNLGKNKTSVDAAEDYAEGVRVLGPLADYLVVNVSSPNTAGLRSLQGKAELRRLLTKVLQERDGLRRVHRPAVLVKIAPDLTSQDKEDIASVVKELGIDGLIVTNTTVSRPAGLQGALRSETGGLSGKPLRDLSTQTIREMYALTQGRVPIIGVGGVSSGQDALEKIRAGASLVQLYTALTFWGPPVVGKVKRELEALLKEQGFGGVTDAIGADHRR

How did the IC50 [1] turn out when `Cc1cnc(C(=O)N[C@@H]2CCCc3c2cnn3-c2ccccc2F)cn1` (single isomer, unassigned) [Example 15, N-[(4R*)-1-(2-fluorophenyl)-4,5,6,7-tetrahydro-1H-indazol-4-yl]-5-methylpyrazine-2-carboxamide] was run?
The IC50 was 0.735 µM.

For `O=C(N[C@H]1CCCc2c1cnn2-c1ccccc1F)c1ccccn1` [Example 2, (S)—N-(1-(2-Fluorophenyl)-4,5,6,7-tetrahydro-1H-indazol-4-yl)picolinamide], which viability at 2 µM (ARN8 melanoma cells; absence of excess uridine) is on record?
Its viability at 2 µM is 100%.

For `O=C(N[C@@H]1CCCc2c1cnn2-c1ccccc1F)c1ccccn1` [Example 3, (R)—N-(1-(2-fluorophenyl)-4,5,6,7-tetrahydro-1H-indazol-4-yl)picolinamide], which viability at 2 µM (ARN8 melanoma cells; absence of excess uridine) is on record?
Its viability at 2 µM is 30%.

How did the viability at 2 µM (ARN8 melanoma cells; absence of excess uridine) turn out when `O=C(NC1CCCc2c1cnn2-c1ccccc1F)c1cscn1` (stereo not drawn) [Example 4, N-[1-(2-fluorophenyl)-4,5,6,7-tetrahydro-1H-indazol-4-yl]-1,3-thiazole-4-carboxamide] was run?
Its viability at 2 µM is 52%.

And the IC50 [2]?
Its IC50 is 1.11 µM.

With `O=C(NC1CCCc2c1cnn2-c1ccc(F)cc1F)c1onc2c1CCCC2` (stereo not drawn) [Example 5, N-(1-(2,4-difluorophenyl)-4,5,6,7-tetrahydro-1H-indazol-4-yl)-4,5,6,7-tetrahydrobenzo[c]isoxazole-3-carboxamide] as the compound, how does the viability at 2 µM (ARN8 melanoma cells; absence of excess uridine) read?
Its viability at 2 µM is 22%.

And the IC50 [2]?
Its IC50 is 0.29 µM.

Which results are given for `Cc1cc(C(=O)NC2CCCc3c2cnn3-c2ccc(C)c(C)c2)no1` (stereo not drawn) [Example 6, N-[1-(3,4-dimethylphenyl)-4,5,6,7-tetrahydro-1H-indazol-4-yl]-5-methyl-3-isoxazolecarboxamide]?
viability at 2 µM (ARN8 melanoma cells; absence of excess uridine): 105%; IC50 [2]: 5.83 µM

Which results are given for `COC(=O)c1ccc(C(=O)NC2CCCc3c2cnn3-c2ccccc2F)nc1` (stereo not drawn) [Example 7, Methyl 6-({[1-(2-fluorophenyl)-4,5,6,7-tetrahydro-1H-indazol-4-yl]amino}carbonyl)nicotinate]?
viability at 2 µM (ARN8 melanoma cells; absence of excess uridine): 28%; IC50 [2]: > 10 µM

How did the “ARN8 melanoma cell growth and/or viability” value (ARN8 melanoma cells; absence of excess uridine, FIG. 2) turn out when `O=C(NC1CCCc2c1cnn2-c1ccccc1F)c1onc2c1CCCC2` (stereo not drawn) [Example 8, N-(1-(2-fluorophenyl)-4,5,6,7-tetrahydro-1H-indazol-4-yl)-4,5,6,7-tetrahydrobenzo[c]isoxazole-3-carboxamide] was run?
Its value is “reduces ARN8 melanoma cell growth and/or viability”.

What about the “effect on ARN8 melanoma cell growth and/or viability with excess uridine” value (ARN8 melanoma cells; excess uridine (100 micromolar), FIG. 2) of the same compound?
The value was “largely prevented by the addition of excess uridine”.

And the viability at 2 µM (ARN8 melanoma cells; absence of excess uridine)?
Its viability at 2 µM is 48%.

And the IC50 [2]?
The IC50 was 0.032 µM.

What does the source list for `COC(=O)c1ccc(C(=O)NC2CCCc3c2cnn3-c2cc(F)cc(F)c2)nc1` (stereo not drawn) [Example 9, Methyl 6-({[1-(3,5-difluorophenyl)-4,5,6,7-tetrahydro-1H-indazol-4-yl]amino}carbonyl)nicotinate]?
viability at 2 µM (ARN8 melanoma cells; absence of excess uridine): 8%; IC50 [2]: > 10 µM

With `CCc1cc(C(=O)NC2CCCc3c2cnn3-c2ccc(F)cc2F)no1` (stereo not drawn) [Example 10, N-[1-(2,4-difluorophenyl)-4,5,6,7-tetrahydro-1H-indazol-4-yl]-5-ethyl-3-isoxazolecarboxamide] as the compound, how does the viability at 2 µM (ARN8 melanoma cells; absence of excess uridine) read?
The viability at 2 µM was 92%.

What about the IC50 [2] of the same compound?
The IC50 was 2.44 µM.

`CSc1nc(C(=O)NC2CCCc3c2cnn3-c2ccc(F)cc2F)cs1` (stereo not drawn) [Example 11, N-[1-(2,4-difluorophenyl)-4,5,6,7-tetrahydro-1H-indazol-4-yl]-2-(methylthio)-1,3-thiazole-4-carboxamide] was tested. Which viability at 2 µM (ARN8 melanoma cells; absence of excess uridine) did it give?
The viability at 2 µM was 93%.

What about the IC50 [2] of the same compound?
Its IC50 is 8.2 µM.

For `O=C(N[C@@H]1CCCc2c1cnn2-c1ccccc1F)c1onc2c1CCCC2` [Example 14, N-[(4R)-1-(2-fluorophenyl)-4,5,6,7-tetrahydro-1H-indazol-4-yl]-4,5,6,7-tetrahydro-2,1-benzoxazole-3-carboxamide], which IC50 [1] is on record?
The IC50 was 0.009 µM.

With `Cc1ccccc1-n1ncc2c1CCC[C@H]2NC(=O)c1cc2ccccc2o1` [Example 17, N-[(4R)-1-(2-methylphenyl)-4,5,6,7-tetrahydro-1H-indazol-4-yl]-1-benzofuran-2-carboxamide] as the compound, how does the IC50 [1] read?
The IC50 was 0.124 µM.

For `Cc1ccccc1-n1ncc2c1CCC[C@H]2NC(=O)c1oc2ccccc2c1C` [Example 18, 3-methyl-N-[(4R)-1-(2-methylphenyl)-4,5,6,7-tetrahydro-1H-indazol-4-yl]-1-benzofuran-2-carboxamide], which IC50 [1] is on record?
Its IC50 is 0.459 µM.

For `Cc1ccccc1-n1ncc2c1CCC[C@H]2NC(=O)c1sccc1C` [Example 19, 3-methyl-N-[(4R)-1-(2-methylphenyl)-4,5,6,7-tetrahydro-1H-indazol-4-yl]thiophene-2-carboxamide], which IC50 [1] is on record?
Its IC50 is 0.136 µM.

For `Cc1ccccc1-n1ncc2c1CCC[C@H]2NC(=O)c1ccccn1` [Example 20, N-[(4R)-1-(2-methylphenyl)-4,5,6,7-tetrahydro-1H-indazol-4-yl]pyridine-2-carboxamide], which IC50 [1] is on record?
The IC50 was 0.355 µM.

How did the IC50 [1] turn out when `Cc1ccccc1-n1ncc2c1CCC[C@H]2NC(=O)c1cccnc1O` [Example 21, 2-hydroxy-N-[(4R)-1-(2-methylphenyl)-4,5,6,7-tetrahydro-1H-indazol-4-yl]pyridine-3-carboxamide] was run?
The IC50 was 0.881 µM.

`Cc1ccc(C(=O)N[C@@H]2CCCc3c2cnn3-c2ccccc2C)nc1` [Example 24, 5-methyl-N-[(4R)-1-(2-methylphenyl)-4,5,6,7-tetrahydro-1H-indazol-4-yl]pyridine-2-carboxamide] was tested. Which IC50 [1] did it give?
Its IC50 is 0.066 µM.

`Cc1ccccc1-n1ncc2c1CCC[C@H]2NC(=O)c1ncccc1C` [Example 26, 3-methyl-N-[(4R)-1-(2-methylphenyl)-4,5,6,7-tetrahydro-1H-indazol-4-yl]pyridine-2-carboxamide] was tested. Which IC50 [1] did it give?
Its IC50 is 0.096 µM.

How did the IC50 [1] turn out when `O=C(N[C@@H]1CCCc2c1cnn2-c1ccccc1F)c1noc2ccccc12` [Example 28, N-[(4R)-1-(2-fluorophenyl)-4,5,6,7-tetrahydro-1H-indazol-4-yl]-1,2-benzoxazole-3-carboxamide] was run?
Its IC50 is 0.018 µM.

How did the IC50 [1] turn out when `O=C(N[C@@H]1CCCc2c1cnn2-c1ccccc1F)c1nc2ccccc2o1` [Example 33, N-[(4R)-1-(2-fluorophenyl)-4,5,6,7-tetrahydro-1H-indazol-4-yl]-1,3-benzoxazole-2-carboxamide] was run?
The IC50 was 0.088 µM.

With `O=C(N[C@@H]1CCCc2c1cnn2-c1ccccc1F)c1cc2ccccc2[nH]1` [Example 35, N-[(4R)-1-(2-fluorophenyl)-4,5,6,7-tetrahydro-1H-indazol-4-yl]-1H-indole-2-carboxamide] as the compound, how does the IC50 [1] read?
The IC50 was 2.67 µM.

With `COc1cc(C(=O)N[C@@H]2CCCc3c2cnn3-c2ccccc2F)nc2ccccc12` [Example 38, (R)—N-(1-(2-fluorophenyl)-4,5,6,7-tetrahydro-1H-indazol-4-yl)-4-methoxyquinoline-2-carboxamide] as the compound, how does the IC50 [1] read?
The IC50 was 2.08 µM.

How did the IC50 [1] turn out when `O=C(N[C@@H]1CCCc2c1cnn2-c1ccccc1F)c1ccc(C(F)(F)F)cn1` [Example 40, N-[(4R)-1-(2-fluorophenyl)-4,5,6,7-tetrahydro-1H-indazol-4-yl]-5-(trifluoromethyl)pyridine-2-carboxamide] was run?
Its IC50 is 2 µM.

How did the IC50 [1] turn out when `Cc1ccnc(C(=O)NC2CCCc3c2cnn3-c2ccccc2)c1` (stereo not drawn) [Example 43, 4-methyl-N-(1-phenyl-4,5,6,7-tetrahydro-1H-indazol-4-yl)pyridine-2-carboxamide] was run?
Its IC50 is 0.441 µM.

How did the IC50 [1] turn out when `Cc1cccc(C(=O)N[C@@H]2CCCc3c2cnn3-c2ccccc2C)n1` [Example 45, 6-methyl-N-[(4R)-1-(2-methylphenyl)-4,5,6,7-tetrahydro-1H-indazol-4-yl]pyridine-2-carboxamide] was run?
The IC50 was > 3 µM.

`O=C(N[C@@H]1CCCc2c1cnn2-c1ccccc1F)c1ncn2c1CCCC2` [Example 46, (R)—N-(1-(2-fluorophenyl)-4,5,6,7-tetrahydro-1H-indazol-4-yl)-5,6,7,8-tetrahydroimidazo[1,5-a]pyridine-1-carboxamide] was tested. Which IC50 [1] did it give?
The IC50 was 0.006 µM.

How did the IC50 [1] turn out when `CC(C)OC(=O)c1cccc(-n2ncc3c2CCC[C@H]3NC(=O)c2noc3c2CCCC3)c1` [Example 52, Propan-2-yl-3-[(4R)-4-(4,5,6,7-tetrahydro-1,2-benzoxazole-3-amido)-4,5,6,7-tetrahydro-1H-indazol-1-yl]benzoate] was run?
The IC50 was 0.011 µM.

With `O=C(N[C@@H]1CCCc2c1cnn2-c1cccc(C(=O)N2CCOCC2)c1)c1noc2c1CCCC2` [Example 53, N-[(4R)-1-[3-(morpholine-4-carbonyl)phenyl]-4,5,6,7-tetrahydro-4H-indazol-4-yl]-4,5,6,7-tetrahydro-1,2-benzoxazole-3-carboxamide] as the compound, how does the IC50 [1] read?
Its IC50 is 0.22 µM.
